{"source": "patent US4577016A", "about": "“Process for the preparation of penem derivatives” (Farmitalia Carlo Erba S.p.A., priority 1982, dated 1986)", "format_in_all_cases": "cell-based", "key": {"Escherichia coli 1507 E": {"tested_on": "Escherichia coli 1507 E", "assay": "activity against Escherichia coli 1507 E", "conditions": "in words"}, "Escherichia coli TEM": {"tested_on": "Escherichia coli TEM", "assay": "activity against Escherichia coli TEM", "conditions": "in words"}, "[1]": {"tested_on": "Klebsiella pneumoniae ATCC 10031", "assay": "activity against Klebsiella pneumoniae ATCC 10031", "conditions": "in words"}, "Proteus vulgaris X 20": {"tested_on": "Proteus vulgaris X 20", "assay": "activity against Proteus vulgaris X 20", "conditions": "in words"}, "Gram-positive bacteria": {"tested_on": "Gram-positive bacteria", "assay": "activity against Gram-positive bacteria", "conditions": "in words"}, "Gram-negative bacteria": {"tested_on": "Gram-negative bacteria", "assay": "minimal inhibiting concentrations against Gram-negative bacteria", "conditions": "in words"}, "Streptococcus pyogenes": {"tested_on": "Streptococcus pyogenes", "assay": "minimal inhibiting concentration against Streptococcus pyogenes", "conditions": "sodium salt"}, "Streptococcus pneumoniae": {"tested_on": "Streptococcus pneumoniae", "assay": "minimal inhibiting concentration against Streptococcus pneumoniae", "conditions": "sodium salt"}, "[2]": {"tested_on": "penicillinase producer Staphylococcus aureus", "assay": "minimal inhibiting concentration against penicillinase producer Staphylococcus aureus", "conditions": "sodium salt"}, "[3]": {"tested_on": "penicillinase non-producer Staphylococcus aureus", "assay": "minimal inhibiting concentration against penicillinase non-producer Staphylococcus aureus", "conditions": "sodium salt"}}, "note": "Counter-ions that a name gives are not always drawn."}
{"molecule": "C[C@@H](O)[C@H]1C(=O)N2C(C(=O)O)=C(CSc3nc(=O)c(O)nn3C)S[C@H]12", "note": "[(5R,6S)-6-[1(R)-hydroxyethyl]-2-(2-methyl-5-oxo-6-hydroxy-2,5-dihydro-1,2,4-triazin-3-yl)-thiomethyl-penem-3-carboxylic acid, disodium salt]", "values": [{"measurement": "activity against Gram-negative bacteria", "setting": "Escherichia coli 1507 E", "value": "particularly favourable activity"}, {"measurement": "activity against Gram-negative bacteria", "setting": "Escherichia coli TEM", "value": "particularly favourable activity"}, {"measurement": "activity against Gram-negative bacteria", "setting": "[1]", "value": "particularly favourable activity"}, {"measurement": "activity against Gram-negative bacteria", "setting": "Proteus vulgaris X 20", "value": "particularly favourable activity"}]}
{"molecule": "C[C@@H](O)[C@H]1C(=O)N2C(C(=O)O)=C(CSc3nnc(SCC(=O)O)s3)S[C@H]12", "note": "[(5R,6S)-6-[1(R)-hydroxyethyl]-2-(5-carboxymethylthio-1,3,4-thiadiazol-2-yl)-thiomethyl-penem-3-carboxylic acid]", "values": [{"measurement": "minimal inhibiting concentrations against Gram-positive bacteria", "setting": "Gram-positive bacteria", "value": "particularly favourable values"}, {"measurement": "minimal inhibiting concentrations against Gram-negative bacteria", "setting": "Gram-negative bacteria", "value": "particularly favourable values"}]}
{"molecule": "C[C@@H](O)[C@H]1C(=O)N2C(C(=O)O)=C(CSc3nnnn3CCC(N)=O)S[C@H]12", "note": "[(5R,6S)-6-[1(R)-hydroxyethyl]-2-[1-(2-aminocarbonylethyl)-1,2,3,4-tetrazol-5-yl]-thiomethyl-penem-3-carboxylic acid]", "values": [{"measurement": "minimal inhibiting concentrations against Gram-positive bacteria", "setting": "Gram-positive bacteria", "value": "particularly favourable values"}, {"measurement": "minimal inhibiting concentrations against Gram-negative bacteria", "setting": "Gram-negative bacteria", "value": "particularly favourable values"}]}
{"molecule": "C[C@@H](O)[C@H]1C(=O)N2C(C(=O)O)=C(CSc3nnnn3C)S[C@H]12", "note": "[(5R,6S)-6-[1(R)-hydroxyethyl]-2-[1-methyl-1,2,3,4-tetrazol-5-yl)-thiomethyl]-penem-3-carboxylic acid]", "values": [{"measurement": "minimal inhibiting concentrations against Gram-positive bacteria", "setting": "Gram-positive bacteria", "value": "particularly favourable values"}, {"measurement": "minimal inhibiting concentrations against Gram-negative bacteria", "setting": "Gram-negative bacteria", "value": "particularly favourable values"}]}
{"molecule": "C[C@@H](O)[C@H]1C(=O)N2C(C(=O)O)=C(CSc3ccc4nnnn4n3)S[C@H]12", "note": "[(5R,6S)-6-[1(R)-hydroxyethyl]-2-{tetrazolo[1,5-b]pyridazin-6-yl}-thiomethyl-penem-3-carboxylic acid]", "values": [{"measurement": "activity against Gram-positive bacteria", "setting": "Gram-positive bacteria", "value": "particularly active"}]}
{"molecule": "C[C@@H](O)[C@H]1C(=O)N2C(C(=O)O)=C(CSc3ccc4nnnn4n3)S[C@H]12", "note": "[Sodium(5R,6S)-6-[1(R)-hydroxyethyl]-2-(tetrazolo[1,5-b]-pyridazin-6-yl)-thiomethyl-penem-3-carboxylate]", "values": [{"measurement": "MIC", "setting": "Streptococcus pyogenes", "value": 2, "unit": "ng/mL"}, {"measurement": "MIC", "setting": "Streptococcus pneumoniae", "value": 2, "unit": "ng/mL"}, {"measurement": "MIC", "setting": "[2]", "value": 4, "unit": "ng/mL"}, {"measurement": "MIC", "setting": "[3]", "value": 4, "unit": "ng/mL"}]}
